Measurements from patent US20030083376A1, “Depot preparations” (priority 2001, published 2003).

Key:
Type in all cases: physicochemical
[1] = Storage stability in powder laundry detergent; conditions: after one month
Source text: (§1) The separate samples are then divided into portions.

[2] = Storage stability in soap; conditions: stored in the dark for about one month at room temperature
Source text: as §1
The soap formulation below can be prepared in accordance with generally known methods. The data refer to percentages by weight.
The soap formulations A and B were stored in the dark for about one month at room temperature.

[3] = Hydrolysis rate in 1% strength aqueous soap solution, SPME headspace analysis
Experimental: To determine the hydrolysis rate, the depot preparation was added to a 1% strength aqueous soap solution, and the concentration of the depot preparation or of the free aldehyde was measured by SPME headspace analysis.

storage stability [1] | Storage stability [%] [2] | time to complete hydrolysis [3] | storage stability relative to the corresponding aldehyde [2] | Compound
27% | 27% |  |  | CCCCCCC=O [Aldehyde C7, n-Heptanal]
93% | 93% | ≤ 5 min | significantly greater storage stability | CCCCCCC(OCCc1ccccc1)OC(C)=O (centres unmarked) [Example 5, 1-(2-Phenylethoxy)heptyl Acetate]
91% | 91% |  |  | OCCc1ccccc1 [Phenylethyl alcohol, 2-Phenylethanol]
